Measurements published in ChEMBL document CHEMBL4190360, “Exploring Heteroaryl-pyrazole Carboxylic Acids as Human Carbonic Anhydrase XII Inhibitors” (ACS Med Chem Lett, 2017).
pKi: −log10 of the molar value.

Tests used:
SH-SY5Y [1] = assay: Growth inhibition of human SH-SY5Y cells at 1 to 100 uM after 24 hrs by MTS assay relative to control; type: functional
HEK293 [2] = assay: (§1) Growth inhibition of HEK293 cells at 1 to 100 uM after 24 hrs by MTS assay relative to control; type: cell-based; conditions: human, hek293, 24 h, 100 µM
PC-3 = assay: Growth inhibition of human PC3 cells at 1 to 100 uM after 24 hrs by MTS assay relative to control; type: functional
Carbonic anhydrase 9 = Carbonic anhydrase 9 (Homo sapiens, UniProt Q16790)
Description: Inhibition of recombinant human carbonic anhydrase 9 catalytic domain preincubated for 15 mins prior to testing measured for 10 to 100 secs by phenol red-based stopped-flow CO2 hydration assay

SH-SY5Y [3] = assay: Antiproliferative activity against CoCl2-simulated human SH-SY5Y cells assessed as reduction in cell viability at 30 uM pretreated for 24 hrs followed by CoCl2 addition measured after overnight incubation by MTS assay; type: functional
[4] = as §1; type: cell-based; conditions: human, HEK293 cells; read-out: GI
HEK293 [5] = assay: Growth inhibition of HEK293 cells after 24 hrs by MTS assay; type: cell-based; conditions: human, hek293, 24 h

Structure (SMILES) | growth inhibition (GI) (SH-SY5Y [1]) | growth inhibition (GI) (HEK293 [2]) | growth inhibition (GI) (PC-3) | pKi (Carbonic anhydrase 9) | Activity (SH-SY5Y [3]) | inhibition at 24 h, 100 µM [4] | growth inhibition (GI) (HEK293 [5])
CCn1cc(-c2cc(C(=O)O)n[nH]2)c2ccccc21 | 85% | Non-Toxic | 85% |  |  |  | 
CCn1cc(-c2cc(C(=O)O)n(C)n2)c2ccccc21 |  |  |  | 5.54 |  |  | 
CC(C)n1cc(-c2cc(C(=O)O)[nH]n2)c2ccccc21 | 85% | Non-Toxic | 85% | 4.72 |  |  | 
CCCCn1cc(-c2cc(C(=O)OC)[nH]n2)c2ccccc21 |  |  |  | 5.10 |  |  | 
CCn1cc(-c2cc(C(=O)OC)[nH]n2)c2ccccc21 | 85% | Non-Toxic | 85% | 6.33 |  |  | 
CCn1cc(-c2cc(C(=O)OC)n(C)n2)c2ccccc21 |  |  |  | 5.52 |  |  | 
COC(=O)c1cc(-c2cn(C(C)C)c3ccccc23)n[nH]1 | 85% |  | 85% | 5.13 | 40% | 70% | Dose-dependent effect
CCCCn1cc(-c2cc(C(=O)O)[nH]n2)c2ccccc21 |  |  |  | 5.35 |  |  | 
